ChEMBL document CHEMBL2007661, “Compounds: GSK PKIS; Assays: UNC Frye lab” (2012)
Where “and” joins values, the source holds several entries; their conditions need not be identical. Identical values can stand only once.

Experiments:
Conditions in all cases: at 1 µM
[1] = target: T1, Inhibitor of nuclear factor kappa-B kinase subunit alpha (Homo sapiens) (UniProt O15111)
T1 sequence (whole entry): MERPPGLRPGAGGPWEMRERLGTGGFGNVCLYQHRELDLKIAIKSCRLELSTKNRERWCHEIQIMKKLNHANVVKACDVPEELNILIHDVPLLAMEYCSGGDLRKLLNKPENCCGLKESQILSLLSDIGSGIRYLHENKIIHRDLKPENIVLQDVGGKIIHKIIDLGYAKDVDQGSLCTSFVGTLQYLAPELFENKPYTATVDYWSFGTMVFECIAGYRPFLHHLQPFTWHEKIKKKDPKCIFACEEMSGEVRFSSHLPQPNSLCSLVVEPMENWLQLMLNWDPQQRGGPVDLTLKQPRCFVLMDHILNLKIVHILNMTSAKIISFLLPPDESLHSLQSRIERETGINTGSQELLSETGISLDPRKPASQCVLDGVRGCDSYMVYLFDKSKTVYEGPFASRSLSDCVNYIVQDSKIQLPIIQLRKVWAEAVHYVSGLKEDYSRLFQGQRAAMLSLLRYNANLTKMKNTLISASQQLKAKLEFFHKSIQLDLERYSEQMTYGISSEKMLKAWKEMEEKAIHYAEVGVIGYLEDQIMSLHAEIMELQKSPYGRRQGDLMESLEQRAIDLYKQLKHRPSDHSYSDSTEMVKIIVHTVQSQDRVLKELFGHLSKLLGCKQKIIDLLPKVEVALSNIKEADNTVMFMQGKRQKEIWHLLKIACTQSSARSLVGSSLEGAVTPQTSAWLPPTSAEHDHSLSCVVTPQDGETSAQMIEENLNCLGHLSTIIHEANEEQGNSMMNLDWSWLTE

[2] = target: T2, Inhibitor of nuclear factor kappa-B kinase subunit beta (Homo sapiens) (UniProt O14920)
T2 sequence (whole entry): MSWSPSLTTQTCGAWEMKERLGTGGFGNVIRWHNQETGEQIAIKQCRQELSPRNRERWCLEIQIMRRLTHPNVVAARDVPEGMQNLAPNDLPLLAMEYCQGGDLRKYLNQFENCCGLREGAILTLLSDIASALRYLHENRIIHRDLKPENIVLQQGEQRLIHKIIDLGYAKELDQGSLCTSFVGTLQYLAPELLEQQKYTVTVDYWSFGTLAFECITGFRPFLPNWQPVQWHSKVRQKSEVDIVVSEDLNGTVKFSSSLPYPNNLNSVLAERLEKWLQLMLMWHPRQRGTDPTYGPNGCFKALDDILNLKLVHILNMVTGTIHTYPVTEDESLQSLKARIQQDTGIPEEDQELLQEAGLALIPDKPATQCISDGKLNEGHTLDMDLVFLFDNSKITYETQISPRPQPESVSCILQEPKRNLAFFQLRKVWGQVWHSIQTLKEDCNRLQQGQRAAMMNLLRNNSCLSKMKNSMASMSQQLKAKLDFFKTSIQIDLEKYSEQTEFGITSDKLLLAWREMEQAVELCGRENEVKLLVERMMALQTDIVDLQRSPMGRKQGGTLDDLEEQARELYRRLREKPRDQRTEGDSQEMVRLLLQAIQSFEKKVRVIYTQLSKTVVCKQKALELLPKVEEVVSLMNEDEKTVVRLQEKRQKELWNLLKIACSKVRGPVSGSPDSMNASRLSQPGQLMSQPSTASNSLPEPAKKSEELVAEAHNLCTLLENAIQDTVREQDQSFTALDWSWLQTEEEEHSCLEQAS

[3] = target: T3, Serine/threonine-protein kinase TBK1 (Homo sapiens) (UniProt Q9UHD2)
T3 sequence (whole entry): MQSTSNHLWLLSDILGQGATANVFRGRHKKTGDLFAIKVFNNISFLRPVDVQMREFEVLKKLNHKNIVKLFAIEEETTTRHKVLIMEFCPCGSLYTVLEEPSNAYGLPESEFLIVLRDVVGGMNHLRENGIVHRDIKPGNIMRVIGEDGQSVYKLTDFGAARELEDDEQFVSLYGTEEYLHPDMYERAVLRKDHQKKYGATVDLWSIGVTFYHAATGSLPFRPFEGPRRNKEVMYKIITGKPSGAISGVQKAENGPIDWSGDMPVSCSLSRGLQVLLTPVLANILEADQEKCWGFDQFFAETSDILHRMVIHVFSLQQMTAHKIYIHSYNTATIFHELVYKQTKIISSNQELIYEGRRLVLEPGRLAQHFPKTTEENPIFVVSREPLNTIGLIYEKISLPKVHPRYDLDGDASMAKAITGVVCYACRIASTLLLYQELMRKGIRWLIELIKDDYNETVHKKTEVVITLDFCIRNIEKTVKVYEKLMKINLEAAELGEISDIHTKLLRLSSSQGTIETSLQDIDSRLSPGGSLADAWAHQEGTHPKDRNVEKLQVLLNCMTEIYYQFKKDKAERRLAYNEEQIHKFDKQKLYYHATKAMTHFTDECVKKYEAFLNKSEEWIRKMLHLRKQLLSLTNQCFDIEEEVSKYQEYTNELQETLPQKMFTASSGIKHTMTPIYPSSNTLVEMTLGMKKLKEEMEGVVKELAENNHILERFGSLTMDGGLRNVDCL

inhibition [1] | inhibition [2] | inhibition [3] | SMILES
4% | -7% | 9% and 14% | COc1cc(C=NNc2ncnc3c2cnn3Cc2ccccc2)ccc1O
3% and 2% | -1% and 4% | -3% and -2% | c1ccc(COc2ccc(Nc3ncnc4ccc(-c5ccco5)cc34)cc2)cc1
-6% and 2% | -8% and -3% | 19% and 18% | O=C1NC(=O)C(c2cccc(Cl)c2)=C1Nc1ccc(Cl)c(C(=O)O)c1
0% and 1% | -3% and -1% | -7% and -5% | COc1ccc(-c2coc3ncnc(N)c23)cc1
0% and -1% | -2% and 0% | -4% and -6% | [O-][S+]1CCN(Cc2ccc(-c3ccc4ncnc(Nc5ccc(OCc6ccccc6)c(Cl)c5)c4c3)o2)CC1
2% and -1% | -2% and 0% | -4% and -3% | N#Cc1c(NC(=O)c2cccc3ccccc23)sc2c1CCCC2
6% | -10% | 31% and 33% | COc1cc(/C=N/Nc2ncnc3[nH]ncc23)ccc1O
-3% and -2% | 2% and -2% | 3% and 1% | CS(=O)(=O)CCNCc1ccc(-c2ccc3ncnc(Nc4ccc(OCc5cccc(F)c5)c(C(F)(F)F)c4)c3c2)o1
1% and 2% | -5% | 4% and 5% | COc1ccc(-c2ccc3c(NC(=O)C4CC4)n[nH]c3n2)cc1
12% and 13% | 0% and -3% | -2% and 1% | CCc1nccc2c1nc(-c1nonc1N)n2CC
2% | 5% and 1% | 2% and 1% | CCn1c(-c2nonc2N)nc2ccc(F)cc21
0% and 1% | 1% | 54% and 57% | COc1cc2ncn(-c3cc(O[C@@H](C)c4ccccc4Cl)c(C(N)=O)s3)c2cc1OC
-1% and 0% | -1% and -2% | 0% and -2% | Cc1cc(O)cc(C)c1/C=C/c1cncc(C(=O)OC(C)(C)C)c1
1% | -4% and -6% | -1% and 0% | NS(=O)(=O)c1ccc(-c2cc3ccncc3cc2OCc2ccccc2)cc1
2% and 1% | -6% and -4% | 0% and -2% | CCc1cccc(CC)c1/C=C/c1cncc(C(=O)NC)c1
0% and -2% | 1% | 0% and 1% | COc1c(C(N)=O)cc(-c2ccc(Cl)cc2)cc1-c1ccc(S(N)(=O)=O)cc1
-2% and 0% | -2% and -3% | -3% and -2% | Fc1cccc(COc2ccc(Nc3ncnc4sc(-c5cccs5)cc34)cc2Cl)c1
2% and 1% | -2% | -2% and -4% | c1cnn2ncc(-c3ccnc(NCCCN4CCOCC4)n3)c2c1
-1% and 2% | -5% and -1% | 0% and -3% | CCCN1CCC(Oc2cc(Nc3nc(Nc4cccc(F)c4C(N)=O)c4cc[nH]c4n3)c(OC)cc2Cl)CC1

inhibition [1] | inhibition [2] | inhibition [3] | SMILES
-5% and -4% | 3% and 4% | 4% and 3% | COc1ccc(-c2ccncc2)cc1C(N)=O
-5% and -4% | 1% and 2% | 17% and 7% | FC(F)(F)c1cccc(Nc2nccc(-c3cnn4nc(-c5ccccc5)ccc34)n2)c1
1% and -1% | -2% and -3% | 4% | N#Cc1cccc(Nc2ncc(-c3ccccc3)o2)c1
2% and 0% | -3% and -1% | 0% and 2% | COC(=O)Nc1nc2cc(Oc3ccc(NC(=O)Nc4cccc(Br)c4)cc3)ccc2[nH]1
1% and 0% | -1% and -3% | -5% and -7% | FC(F)(F)c1ccc(-c2nn3ncccc3c2-c2ccnc(Nc3ccc4c(c3)OCCO4)n2)cc1
0% and 2% | -2% | -4% and -6% | N#Cc1c(NC(=O)c2ccc(F)cc2)sc2c1CCCC2
4% and 10% | -2% and -3% | 0% and -2% | Nc1nccc(-c2c(-c3ccc(F)cc3)ncn2C2CCC(O)CC2)n1 (centres undefined)
13% and 12% | -6% and -5% | 6% and 7% | CCn1c(-c2nonc2N)nc2c(C#CC(C)(C)O)nc(OC[C@@H](N)c3ccccc3)cc21
0% and 4% | -4% and -2% | 15% and 7% | COc1ccccc1-c1cc(/C=C2\C(=O)Nc3ncc(Br)cc32)cc(Br)c1O
3% and 2% | -1% and -2% | 0% and 1% | CS(=O)(=O)CCNCc1ccc(-c2ccc3ncnc(Nc4ccc(OCc5ccccc5)c(Br)c4)c3c2)o1
-1% and 0% | -6% and -3% | 37% and 39% | COC(=O)c1sc(-n2cnc3cc(OC)c(OC)cc32)cc1OCc1ccccc1C(F)(F)F
2% and 4% | -5% and -3% | 3% and 2% | CNC(=O)c1sc(-n2cnc3cc(OC)c(OC)cc32)cc1OCc1ccccc1C(F)(F)F
14% and 0% | 10% and 6% | 41% and 42% | Fc1cccc(COc2ccc(Nc3ncnc4sc(-c5ccco5)cc34)cc2Cl)c1
3% and -7% | -3% and -1% | 5% and 7% | Nc1nc(-c2cccc(Cl)c2)c(-c2ccc3ncccc3n2)s1
4% and 3% | -2% and -4% | -3% and -6% | CCN1CCC(C(=O)Nc2n[nH]c3nnc(-c4cccc(F)c4F)cc23)CC1
0% and -1% | 0% and -2% | -8% and -6% | COc1ccc2ncn(-c3cc(O[C@H](C)c4ccccc4C(F)(F)F)c(C(N)=O)s3)c2c1
1% and 2% | -5% and -1% | 57% and 54% | COc1cc2c(cc1Nc1nc(Nc3ccsc3C(N)=O)c3cc[nH]c3n1)N(C(=O)CN(C)C)CCC2(C)C
0% | -2% and -4% | -2% and 1% | O=S(=O)(CCOCc1ccc(-c2ccc3ncnc(Nc4ccc(OCc5cccc(F)c5)c(Cl)c4)c3c2)o1)c1ccccc1
27% and 23% | -4% and -2% | -4% and -2% | Cn1c(-c2nonc2N)nc2cnccc21
